Where two headings read alike, the source gives them in different places.
Tests used:
[1] = Exposure (AUC) in the rat corneal angiogenesis study; assay type: in vivo; conditions: for AUC: female, CD, rat, in vivo, oral, Table 3, free base
Experimental: (§1) Tables 2 through 6 below describe the results obtained in the rat corneal in vivo model of angiogenesis for (1) reference compound (free base) 1, (2) Compound A (free base), and (3) the hydrochloride salt of Compound A. A VEGF-induced rat corneal angiogenesis assay was performed using the following procedure: • In Life Aspects: Female CD rats weighing approximately 250 grams were randomized into one of six treatment groups. On the day of surgery the rats were temporarily anesthetized using isoflurane. A vertical incision was made on the midline of the cornea and a pocket was created to separate the connective tissue layers of the stroma. The distance between the apex of the pocket and the limbus was approximately 1.8 mm. A presoaked nylon filter disk was inserted to the apex of the pocket (in the case of the control treatment group, the disks were soaked in a buffer containing bovine serum albumin; in the remaining treatment groups, the disks were soaked in buffer containing bovine serum albumin plus human VEGF to induce angiogenesis). The different treatment groups were then dosed daily with either vehicle (Ora Plus™, a commercially available vehicle) or a designated amount of test compound formulated in vehicle. • Study Termination and Analysis: After seven days, the rats were euthanized and the implanted corneas photographed using a Nikon SV-3 Ophthalmic Slit Lamp. Numerical data were generated from the digital images using the Metamorph image analysis system (Universal Imaging). Three endpoints were analyzed on each corneal image: (1) disk placement distance from the limbus, (2) number of vessels intersecting a perpendicular line at the midpoint of the disk placement distance, and (3) blood vessel area, as determined by thresholding and automated pixel counting. Only the number of blood vessels is shown in the tables as this endpoint correlated well with the blood vessel area. • Statistical Analysis: Results were analyzed with the StatView statistical program using one-way ANOVA, followed by Fisher's least significant difference test. Data are presented as mean±SE and P<0.05 was considered significant. AUC and ED50 values were calculated using methods well known in the art.

HUVEC = assay: VEGF induced proliferation, HUVEC cell-based assay; conditions: Homo sapiens
[2] = system: VEGF-induced rat corneal angiogenesis; assay: VEGF-induced rat corneal angiogenesis assay; assay type: in vivo; conditions: for Average # of Vessels: 7 days
Experimental: as §1

Rat Liver Microsome = assay: Rat liver microsome clearance; assay type: in vitro ADME; conditions: rat liver microsomes
Text: (§2) Table 7 provides additional information about the pharmacokinetic profiles of reference compound 1 and Compound A. The data contained in this table was obtained using methods well known in the art.

Human Liver Microsome = assay: Human liver microsome clearance; assay type: in vitro ADME; conditions: human liver microsomes
Text: as §2

[3] = Rat pharmacokinetic profile; conditions: in vivo
Text: as §2

cytochrome P450 3A4 = cytochrome P450 3A4 (Homo sapiens, UniProt P08684); assay: Incubation with recombinant human cytochrome P450 3A4; assay type: in vitro ADME; conditions: fortified with NADPH
cytochrome P450 3A4, sequence (P08684 whole entry): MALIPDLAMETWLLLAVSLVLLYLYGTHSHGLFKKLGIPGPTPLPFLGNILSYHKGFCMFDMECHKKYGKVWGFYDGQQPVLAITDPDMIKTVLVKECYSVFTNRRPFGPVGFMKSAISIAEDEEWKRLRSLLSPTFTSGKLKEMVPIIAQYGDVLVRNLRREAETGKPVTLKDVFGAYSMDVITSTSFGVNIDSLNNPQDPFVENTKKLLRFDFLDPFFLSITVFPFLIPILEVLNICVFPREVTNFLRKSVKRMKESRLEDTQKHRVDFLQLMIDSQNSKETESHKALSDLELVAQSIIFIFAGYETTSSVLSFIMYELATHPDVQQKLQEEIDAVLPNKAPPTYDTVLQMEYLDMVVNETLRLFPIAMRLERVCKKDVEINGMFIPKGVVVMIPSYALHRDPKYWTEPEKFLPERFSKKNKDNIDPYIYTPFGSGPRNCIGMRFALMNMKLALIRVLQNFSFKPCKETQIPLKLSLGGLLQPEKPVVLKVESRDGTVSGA
Text: The following compounds identified in Table 16 below were the significant metabolites formed in all species.

liver microsomes = assay: In vitro metabolite profiling in liver microsomes; assay type: in vitro ADME; conditions: 10 μM, liver microsomes 1 mg/mL (human, mouse, rat, monkey, rabbit, dog), NADPH, 37° C., 1 hr
Experimental: Incubation mixtures were prepared including [14C]-Compound A (10 μM, 0.5 μCi), liver microsomes at 1 mg/mL (human, mouse, rat, monkey, rabbit, dog), MgCl2 (3 mM), and potassium phosphate buffer (100 mM). The reaction was started by adding NADPH (1 mM) and incubations were carried out in a shaking water bath maintained at 37° C. for 1 hr. The reactions were stopped by adding 1 volume of ACN:MeOH 1:1 mixture; vortex mixed; centrifuged at 16000×g. The supernatants were analyzed on a reverse phase HPLC (Agilent 1100, Agilent systems, DE) in line with a radiomatic (β-ram, IN/US systems, FL) detector and an LTQ ion-trap mass spectrometer (ThermoFisher, San Jose, Calif.). HPLC separations were carried out on a phenyl-hexyl luna (150×4.6 mm, 5 μm, Phenomenex Inc) column maintained at 40° C. at a flow rate of 1 mL/min. A binary mobile phase consisting of 10 mM ammonium formate in H2O (solvent A) and 0.1% formic in MeOH (solvent B) was employed under the following gradient conditions: 0 to 2 min, 95% A; 2 to 10 min, 95 to 75% A; 10 to 40 min, 75 to 60% A; 40 to 60 min, 60 to 55% A; 60 to 77 min, 55 to 25% A; 77 to 78 min, 25 to 5% A; 78 to 83 min, 5% A; 83 to 84 min, 5 to 95% A; 84 to 90 min, 95% A. The flow post-column was split such that 80% went to radiomatic detector and the remaining 20% to MS. […]

COc1cc2nccc(Oc3ccc4c(c3)OCCN4C(=O)Nc3cc(C)on3)c2cc1OC [Compound A, 7-((6,7-bis(methyloxy)-4-quinolinyl)oxy)-N-(5-methyl-3-isoxazolyl)-2,3-dihydro-4H-1,4-benzoxazine-4-carboxamide]
AUC at ED50 ([1]; Table 6, HCl salt Run #3): 338 ng·h/mL
average AUC at the ED50 ([1]; average of HCl salt studies of Tables 4 and 6 and free base study of Table 3): 313 ng·h/mL
AUC ([1]; 0.03 mg/kg, 0.03 mg/kg daily): 109 ng·h/mL
AUC ([1]; 0.1 mg/kg, 0.1 mg/kg daily): 203 ng·h/mL
AUC ([1]; 0.3 mg/kg, 0.3 mg/kg daily): 730 ng·h/mL
AUC ([1]; 1 mg/kg, 1.0 mg/kg daily): 2370 ng·h/mL
IC50 (HUVEC): 2 nM
ED50 ([2]; Rattus norvegicus, Table 3, free base, number of vessels, read-out: ED50): 0.16 mg/kg
ED50 ([2]; Rattus norvegicus, Table 6, HCl salt Run #3, number of vessels, read-out: ED50): 0.14 mg/kg
Average # of Vessels ([2]; Table 3, free base, VEGF disc + 0.03 mg/kg daily): 24.5
Average # of Vessels ([2]; Table 3, free base, VEGF disc + 0.1 mg/kg daily): 24.9
Average # of Vessels ([2]; Table 3, free base, VEGF disc + 0.3 mg/kg daily): 5.4
Average # of Vessels ([2]; Table 3, free base, VEGF disc + 1.0 mg/kg daily): 2.3
ED50 ([2]; free base, review of Tables 2 and 3): 0.16 mpk
Rat Liver Microsome (Rat Liver Microsome): 45 µL/min/mg
Human Liver Microsome (Human Liver Microsome): 17 µL/min/mg
clearance ([3]; intravenous): 6.67 mL/min/kg
Vd ([3]; intravenous, read-out: Rat Volume of Distribution): 1 L/kg
half-life ([3]; iv, I.V., read-out: Rat I.V. T1/2 (converted)): 2.1 h
bioavailability ([3]; po, 2 mg/kg, P.O., 2 mpk, read-out: Rat P.O. (2 mpk) % F): 59%
AUC(0-inf) ([3]; po, 2 mg/kg, P.O., 2 mpk, read-out: Rat P.O. (2 mpk) AUC0-inf): 2810 ng·h/mL
AUC(0-t) ([3]; po, 2 mg/kg, P.O., 2 mpk, read-out: Rat P.O. (2 mpk) AUC0-t): 2800 ng·h/mL
half-life ([3]; po, 2 mpk, P.O., read-out: Rat P.O. T1/2 (converted)): 2 h
metabolites formed with recombinant human cytochrome P450 3A4 (cytochrome P450 3A4): These same metabolites were also formed
turnover in liver microsomes (liver microsomes): Substantial turnover
